Measurements reported in the NIST ThermoML archive (doi:10.1016/j.jct.2010.04.027).
± gives the expanded uncertainty stated by the source.

Test: molar enthalpy of vaporization or sublimation
Conditions: 298.15 K; Crystal; Static calorimetry

molar enthalpy | SMILES
25.5 ± 0.86 kcal/mol | O=C1c2ccccc2Cc2ccccc21 [9(10H)-anthracenone]
22 ± 0.526 kcal/mol | c1ccc2c(c1)Cc1ccccc1O2 [10H-9-oxaanthracene]
